Measurements reported in US20080187492A1, “Drosophila Models For Diseases Affecting Learning and Memory” (priority 2004, published 2008).

Key:
[1] = system: FS (dFMR1-3+frame shifted rescue fragment) flies; experiment: Naive courtship behavior (courtship index toward virgin female), FS flies; type: in vivo, Drosophila melanogaster; conditions: for naive courtship: MPEP 20 μg/ml, LY341495 400 nM in food
Excerpt: Learning and memory (cognitive abilities) can be examined in Drosophila by utilizing several available learning and memory paradigms. The most popular is a classical conditioning paradigm in which the flies learn to associate electric shocks with olfactory cues (Dudia et al, 1976; Davis, 1993; Tully, 1994). An alternative paradigm to study learning and memory in Drosophila is called conditioned courtship, wherein a male fly learns to modify his courtship behavior after experience with an unreceptive female; it is a multi-sensory paradigm involving associations from more then one sensory input (Siegel and Hall, 1979; for review see Hall, 1994). It is a more complex associative learning paradigm and was utilized to assay learning and memory in this article to elucidate the role of dFMR1 in learning and memory (Tompkins et al, 1980; Tompkins et al, 1982; Tompkins et al, 1983; Tompkins et al, 1984; Ackerman and Siegel, 1986). Courting male flies perform a characteristic sequence of behaviors: orienting toward and following the female, tapping her with his forelegs, vibrating one or both wings, licking her genitalia, and attempting copulation (Sturtevant, 1915; Bastock and Manning, 1955; Bastock, 1956). These behaviors are repeated with some variation until successful copulation occurs. Virgin females will generally respond by mating; however, recently mated females will be unreceptive and will not allow copulation to occur (Spieth, 1974), they display different behaviors (Bastock and Manning, 1955; Connolly and Cook, 1973) and have an altered, although somewhat overlapping, pheromonal profile (Cobb and Ferveur, 1996). The naive male will find a previously mated female to have a pheromonal repertoire that is less provocative then that of a virgin female target. A naive male paired with a mated female will initially court her, but his courtship activity soon decreases; after 1 hour of experience with the mated female, his courtship when subsequently paired with a virgin female remains depressed for 2-3 hours (Siegel and Hall, 1979). This effect is not a general suppression of all courtship activity since a male's tendency to court an immature male is not suppressed (Gailey et al, 1984). […] These behaviors are quantified as a courtship index (CI) which is defined as the percentage of time a male fly spends performing any of the six courtship steps toward a target female in a ten minute test period. A decrease in CI after training with a previously mated female is indicative of behavioral plasticity in the form of learning or memory.
Since we use female targets that are not etherized (therefore they are freely moving), and the w118 and dfmr1-3 flies may have slightly impaired visual acuity due to lack of eye pigmentation, and since visual inputs affect courtship behavior, all subsequent experiments were done utilizing only the genotypes Rescue: dfmr1-3+wild type rescue fragment, and FS: dfmr1-3+frame shifted rescue fragment. Both of these genotypes have more pigmentation and similar levels of eye pigmentation to each other. For FIGS. 4 and 5, a high concentration of MPEP (1,000 μg/ml) was used. For the remainder of the experiments the food was either control (CT) or exactly the same control food containing the appropriate concentration of MPEP (M). The position of the CT and the M are indicative of the point at which the group was on the particular food. The first letter indicates the food type that the larvae grew up on, and the second letter denotes the food type that the adult flies were placed on within four hours of eclosion, […] fresh food.
Naive males were placed in the training chamber for one hour with no female, and then placed with a virgin target female for a ten-minute interval. The naive courtship behavior was reduced by high MPEP concentration in Rescue (p<0.0001) and FS (p<0.0005) lines, and it was depressed to similar levels by high MPEP treatment in the Rescue and FS groups (FIG. 2A). […]

[2] = system: FS mutant flies; experiment: Fusion of mushroom body β-lobes (anti-FasII staining), FS mutant flies; type: in vivo, Drosophila melanogaster
Description: Histological analysis was performed on relevant experimental flies, showing the fusion of MB beta lobes and the rescue of these fusions with in mGluR antagonists (FIG. 18). Brains from (0-1 day old) dfmr1 mutant adult flies were stained with anti-fasciclin II (ID4) and a rhodamine-coupled secondary antibody. The α, β, & γ lobes of the MBs are clearly labeled with this antibody and appear normal in this mutant brain (Panel A). Panels B-E show a higher magnification of the β-lobes at the midline. […] Panels C-E show mutants brains displaying a C) “mild” (arrowhead), D) “moderate” and E) “severe” level of midline crossing by the […]. […] WT rescue flies are dfmr1 mutants containing one copy of the dfmr1 genomic rescue fragment. The number of brains examined are listed below each group.
Rescue of β-lobe fusions with mGluR antagonists. Previously it has been established that the mushroom bodies are involved in learning and memory in the conditioned courtship and the odor shock classical conditioning paradigms in Drosophila (deBelle and Heisenberg, 1994; Joiner and Griffith, 1999; McBride et al, 1999; Zars et al, 2000; Paschel and Preat, 2001). […] When labeled with anti-FasII, we observed a range of β-lobe fusion defects in brains derived from 0-2 day old FS mutant flies, but not Rescue flies (FIG. 18).
Since treatment of FS mutant flies with mGluR antagonists rescued the memory defects observed in these flies, we examined the effect of these treatments on the β-lobe fusion defect to determine if the rescue of the two phenotypes was correlated. We raised FS mutant flies in food containing 8.6 mM MPEP, 400 nM LY341495 or 350 mM MTPG, then examined the morphology of the MBs in 0-2 day old adults. […] For example, mild fusion defects were only observed in 18% of FS mutant brains raised in food containing 400 nM LY341495 (FIG. 18F). No effect was observed when these drugs were fed to Rescue flies during development (not shown).
If this is true, then we would expect that the behavioral rescue obtained by treating FS mutant flies these drugs during adulthood alone would lead to a similar morphological rescue. To test this hypothesis, we treated FS mutant flies with 8.6 mM MPEP for four days starting at eclosion, and then transferred them to normal food for 24 hours before examining the morphology of their MBs. For comparison we also examined the MBs of flies left in control food for five days. […] Thus it appears that rescue of this morphological defect is not absolutely necessary for the rescue of the memory defects observed in the dfmr1 mutant flies.

[3] = raised in food containing 8.6 mM MPEP, 400 nM LY341495 or 350 mM MTPG, 0-2 day old adults

Structure (SMILES) | naive courtship activity ([1]; 5 day old adults, 573 mM MPPG (p<0.0001) or 348 μM MTPG (p<0.005)) | β-lobe fusion defects [2, 3] | naive courtship ([1]; 5 day old) | FS mutant brains with (mild) fusion defects ([2]; raised in food containing 400 nM LY341495, untreated roughly 70%) [%] | naive courtship activity ([1]; 20-day-old, MPEP (86.6 μM) in adulthood only (CT-M)) | naive courtship activity ([1]; 20-day-old, MPEP (86.6 μM) in development and adulthood (M-M)) | naive courtship activity ([1]; 20-day-old, MPEP (86.6 μM) in development only (M-CT)) | naive courtship activity ([1]; 5 day old, MPEP 200 μg/ml (86.6 μM) in development, with or without adulthood (M-M, M-CT)) | naive courtship activity ([1]; 5 day old, MPEP 200 μg/ml (86.6 μM) in food in adulthood only (CT-M), p<0.005) | naive courtship behavior ([1]; 5 day old, MPEP 1,000 μg/ml (433.0 μM) in food in adulthood (CT-M)) | β-lobe fusion defects ([2]; 8.6 mM MPEP for four days starting at eclosion (adulthood only))
CC(N)(C(=O)O)c1ccc(-c2nnn[nH]2)cc1 (racemic) [MTPG, (RS)-α-methyl-4-tetrazolylphenylglycine] | significant increase in courtship activity | rescue of the β-lobe fusion defects | – | – | – | – | – | – | – | – | –
N[C@](CC1c2ccccc2Oc2ccccc21)(C(=O)O)[C@H]1C[C@@H]1C(=O)O [LY341495, (2S)-2-amino-2-[(1S,2S)-2-carboxycycloprop-1-yl]-3-(xanth-9-yl) propionic acid] | – | rescue of the β-lobe fusion defects | significantly increased naive courtship | 18 | – | – | – | – | – | – | –
Cc1cccc(C#Cc2ccccc2)n1 [MPEP, 2-methyl-6-(phenylethynyl)pyridine] | – | rescue of the β-lobe fusion defects | significantly increased naive courtship | – | significant increase in courtship activity | significant increase in courtship activity | did not demonstrate an increase in naive courtship activity | courtship levels similar to CT-CT Rescue flies | significant increase in courtship activity | reduced | did not observe any rescue of the β-lobe fusion defects
